Earlier results in patent US20040229771A1, “Method of reducing decline of or preserving residual renal function” (priority 2003, published 2004).

Test system: cell culture
Conditions: cell culture experiments, reference (2)

O=CC(=O)C=CC(O)CO (stereo not shown) [3,4-DGE, 3,4-dideoxyglucosone-3-ene]
immunosuppressive effects: immunosuppressive effects
